# Laboratory results published in patent US9290485B2, “N-((6-amino-pyridin-3-yl)methyl)-heteroaryl-carboxamides” (NOVARTIS AG, priority 2010, dated 2016).
# Molecular target: human plasma kallikrein (Homo sapiens (Human), UniProt P03952)
# Conditions: human plasma kallikrein 25 pM, substrate 0.5 uM, 1 hour pre-incubation at room temperature, read at t=60 min
# Experimental: All other chemicals were of analytical grade.
# A stock solution of 0.17 mg/ml deinonized water was stored at −80° C. Enzymatic reactions were conducted in ‘assay buffer’, comprising 50 mM Hepes/NaOH at pH 7.8, 150 mM NaCl, 1 mM EDTA and 0.05% (w/v) CHAPS.
# Both, enzyme and substrate were diluted in assay buffer.
# All protein and peptide containing solutions were handled in siliconized tubes (Life Systems Design, Merenschwand, Switzerland). […] Plate measurements were conducted by the means of a Safire2 reader (TECAN, Maennedorf, Switzerland). The Safire2 is a monochomator-based instrument and wavelengths of 485 nm and 535 nm were taken for fluorescence excitation and emission acquisition, respectively. The bandwidths were set to 10 nm in both the excitation and the emission path. The fluorescence in each well was excited by three flashes per measurement.
# The test compound was dissolved in 90% (v/v) DMSO/water. For the assays, 250 nL of the 90% (v/v) DMSO/water solution or compound solution were added per well, followed by the addition of 12.5 μl protease solution (protease in assay buffer). […] After 1 hour of pre-incubation at room temperature, the reactions were started by the addition of 12.5 μl substrate solution (in assay buffer, final assay concentration was 0.5 uM). After the addition of the substrate solution, the final DMSO concentration in the assay was 0.9% (v/v). […] The IC50 value was calculated from the plot of percentage of inhibition vs. inhibitor concentration by a logistics fit according to the following equation: y=A2+(A1−A2)/(1+(x/IC50)^p) where y is the %-inhibition at the inhibitor concentration, x. A1 is the lowest inhibition value, i.e. 0%, and A2 the maximum inhibition value, i.e. 100%. The exponent, p, is the Hill coefficient. The curve fitting was conducted with the non-linear regression routine of the analysis software Origin 7.55R6 (OriginLab Corporation).
# Chain of human plasma kallikrein (P03952 whole entry, looked up): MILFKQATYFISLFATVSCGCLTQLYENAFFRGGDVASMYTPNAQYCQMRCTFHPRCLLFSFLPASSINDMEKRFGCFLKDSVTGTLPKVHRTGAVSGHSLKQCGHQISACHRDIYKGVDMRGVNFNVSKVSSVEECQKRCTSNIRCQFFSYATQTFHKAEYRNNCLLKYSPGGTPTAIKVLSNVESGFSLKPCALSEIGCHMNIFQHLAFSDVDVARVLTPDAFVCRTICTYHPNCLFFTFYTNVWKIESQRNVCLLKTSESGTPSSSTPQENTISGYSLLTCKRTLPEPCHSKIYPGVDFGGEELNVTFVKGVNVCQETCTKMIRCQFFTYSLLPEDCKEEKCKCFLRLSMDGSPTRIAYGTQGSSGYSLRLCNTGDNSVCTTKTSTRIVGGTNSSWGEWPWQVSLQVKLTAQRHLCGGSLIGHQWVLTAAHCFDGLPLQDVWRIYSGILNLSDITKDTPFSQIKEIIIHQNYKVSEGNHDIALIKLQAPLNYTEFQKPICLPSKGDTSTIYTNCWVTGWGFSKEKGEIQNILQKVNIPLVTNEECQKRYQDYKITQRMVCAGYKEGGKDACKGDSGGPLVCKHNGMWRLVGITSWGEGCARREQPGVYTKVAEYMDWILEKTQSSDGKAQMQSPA
# Chain of human plasma kallikrein (P03952 whole entry partner, looked up): as the sequence (P03952 whole entry, looked up) above
row,Compound,IC50 [nM]
1,"COCCOc1cc(N)nc(C)c1CNC(=O)c1cnn(Cc2ccccc2)c1 [Example 60, N-((6-amino-4-(2-methoxyethoxy)-2-methylpyridin-3-yl)methyl)-1-benzyl-1H-pyrazole-4-carboxamide]",379
2,"Cc1cn(Cc2ccccc2)cc1C(=O)NCc1c(C)cc(N)nc1C [Example 76, N-((6-amino-2,4-dimethylpyridin-3-yl)methyl)-1-benzyl-4-methyl-1H-pa role-3-carboxamide]",949
3,"Cc1cc(N)nc(C)c1CNC(=O)c1ncn(Cc2ccc(Oc3ccccc3)cc2)n1 [Example 63, N-((6-amino-2,4-dimethylpyridin-3-yl)methyl)-1-(4-phenoxybenzyl)-1H-1,2,4-triazole-3-carboxamide]",11
4,"Cc1cc(N)nc(C)c1CNC(=O)c1cnn(Cc2ccc(S(=O)(=O)N(C)C)cc2)c1 [Example 126, N-((6-amino-2,4-dimethylpyridin-3-yl)methyl)-1-(4-(N,N-dimethylsulfamoyl)benzyl)-1H-pyrazole-4-carboxamide]",670
5,"Cc1cc(N)nc(C)c1CNC(=O)c1ncc(Cc2ccccc2)o1 [Example 7, N-((6-amino-2,4-dimethylpyridin-3-yl)methyl)-5-benzyloxazole-2-carboxamide]",2030
6,"Cc1cc(N)nc(C)c1CNC(=O)c1cn(Cc2ccc(Cn3cccn3)cc2)cn1 [Example 6, 1-(4-((1H-pyrazol-1-yl)methyl)benzyl)-N-((6-amino-2,4-dimethylpyridin-3-yl)methyl)-1H-imidazole-4-carboxamide]",0.2
7,"Cc1nc(N)cc(OCC(=O)C(C)(C)C)c1CNC(=O)c1cnn(Cc2ccc3ccccc3c2)c1 [Example 149, N-((6-amino-4-(3,3-dimethyl-2-oxobutoxy)-2-methylpyridin-3yl)methyl)-1-(naphthalen-2-ylmethyl)-1H-pyrazole-4-carboxamide]",7.8
8,"Cc1cc(N)nc(C)c1CNC(=O)c1ccn(S(=O)(=O)c2cccc(-c3ncccn3)c2)c1 [Example 132, N-((6-amino-2,4-dimethylpyridin-3-yl)methyl)-1-(3-(pyrimidin-2-yl)phenylsulfonyl)-1H-pyrrole-3-carboxamide]",71
9,"Cc1cc(N)nc(C)c1CNC(=O)c1cnn(Cc2ccc(OCC#N)cc2)c1 [Example 135, N-((6-amino-2,4-dimethylpyridin-3-yl)methyl)-1-(4-(cyanomethoxy)benzyl)-1H-pyrazole-4-carboxamide]",89
10,"COCCN1CCCc2ccc(Cn3cc(C(=O)NCc4c(C)cc(N)nc4C)cn3)cc21 [Example 150, N-((6-Amino-2,4-dimethylpyridin-3-yl)methyl)-1-((1-(2-methoxyethyl)-1,2,3,4-tetrahydroquinolin-7-yl)methyl)-1H-pyrazole-4-carboxamide]",10
11,"Cc1cc(N)nc(C)c1CNC(=O)c1n[nH]c(Cc2ccccc2)n1 [Example 113, N-((6-amino-2,4-dimethylpyridin-3-yl)methyl)-5-benzyl-1H-1,2,4-triazole-3-carboxamide]",5800
12,"Cc1cc(N)nc(C)c1CNC(=O)c1cnn(Cc2cccc3c2OCCCO3)c1 [Example 95, N-((6-amino-2,4-dimethylpyridin-3-yl)methyl)-1-((3,4-dihydro-2H-benzo[b][1,4]dioxepin-6-yl)methyl)-1H-pyrazole-4-carboxamide]",485
13,"Cc1nc(N)cc(OC2CCCCC2)c1CNC(=O)c1cnn(Cc2ccccc2)c1 [Example 15, N-((6-amino-4-(cyclohexyloxy)-2-methylpyridin-3-yl)methyl)-1-benzyl-1H-pyrazole-4-carboxamide]",230
14,"Cc1ccc2cc(Cn3cc(C(=O)NCc4c(Cl)cc(N)nc4C)nn3)ccc2n1 [Example 175, N-((6-Amino-4-chloro-2-methylpyridin-3-yl)methyl)-1-((2-methylquinolin-6-yl)methyl)-1H-1,2,3-triazole-4-carboxamide]",61
15,"Cc1nc(N)ccc1CNC(=O)c1cnn(Cc2cc(C(F)(F)F)c3cc(F)ccc3n2)c1 [Example 160, N-((6-amino-2-methylpyridin-3-yl)methyl)-1-((6-fluoro-4-(trifluoromethyl)quinolin-2-yl)methyl)-1H-pyrazole-4-carboxamide]",20
16,"COc1ccc(Cc2nc(C(=O)NCc3c(C)cc(N)nc3C)co2)cc1 [Example 8, N-((6-amino-2,4-dimethylpyridin-3-yl)methyl)-2-(4-methoxybenzyl)oxazole-4-carboxamide]",2640
17,"Cc1nc(N)cc(Cl)c1CNC(=O)c1cnn(Cc2ccc3ccccc3c2)c1 [Example 172, N-((6-amino-4-chloro-2-methylpyridin-3-yl)methyl)-1-(naphthalen-2-ylmethyl)-1H-pyrazole-4-carboxamide]",60
18,"Cc1cc(N)nc(C)c1CNC(=O)c1cnn(Cc2ccc(Cn3ccc(=O)[nH]3)cc2)c1 [Example 139, N-((6-amino-2,4-dimethylpyridin-3-yl)methyl)-1-(4-((3-oxo-2,3-dihydro-1H-pyrazol-1-yl)methyl)benzyl)-1H-pyrazole-4-carboxamide]",4.9
19,"Cc1cc(N)nc(C)c1CNC(=O)c1cn(Cc2ccc3ccccc3c2)nn1 [Example 40, N-((6-amino-2,4-dimethylpyridin-3-yl)methyl)-1-(naphthalen-2-ylmethyl)-1H-1,2,3-triazole-4-carboxamide]",9

row,Compound,IC50 [nM]
1,"Cc1cc(N)nc(C)c1CNC(=O)c1cnn(Cc2ccc(CN3CCOCC3)cc2)c1 [Example 110, N-((6-amino-2,4-dimethylpyridin-3-yl)methyl)-1-(4-(morpholinomethyl)benzyl)-1H-pyrazole-4-carboxamide]",249
2,"COc1cc(N)nc(C)c1CNC(=O)c1cnn(Cc2ccccc2)c1 [Example 14, N-((6-amino-4-methoxy-2-methylpyridin-3-yl)methyl)-1-benzyl-1H-pyrazole-4-carboxamide]",320
3,"Cc1cc(N)nc(C)c1CNC(=O)c1cnn(Cc2ccc(OC(F)(F)F)cc2)c1 [Example 80, N-((6-amino-2,4-dimethylpyridin-3-yl)methyl)-1-(4-(trifluoromethoxy)benzyl)-1H-pyrazole-4-carboxamide]",117
4,"Cc1cc(N)nc(C)c1CNC(=O)c1cnn(Cc2csc(Nc3ccccc3)n2)c1 [Example 25, N-((6-amino-2,4-dimethylpyridin-3-yl)methyl)-1-((2-(phenylamino)thiazol-4-yl)methyl)-1H-pyrazole-4-carboxamide]",109
5,"Cc1cc(N)nc(C)c1CNC(=O)c1cnn(Cc2ccc3[nH]cnc3c2)c1 [Example 33, 1-((1H-benzo[d]imidazol-5-yl)methyl)-N-((6-amino-2,4-dimethylpyridin-3-yl)methyl)-1H-pyrazole-4-carboxamide]",262
6,"Cc1cc(N)nc(C)c1CNC(=O)c1cnn(Cc2ccc(F)c(F)c2)c1 [Example 90, N-((6-amino-2,4-dimethylpyridin-3-yl)methyl)-1-(3,4-difluorobenzyl)-1H-pyrazole-4-carboxamide]",2000
7,"Cc1cc(N)nc(C)c1CNC(=O)c1sc(Cc2ccccc2)nc1C [Example 55, N-((6-amino-2,4-dimethylpyridin-3-yl)methyl)-2-benzyl-4-methylthiazole-5-carboxamide]",6300
8,"Cc1cc(N)nc(C)c1CNC(=O)c1cnn(Cc2ccc3c(c2)cc(C)n3C)c1 [Example 168, N-((6-Amino-2,4-dimethylpyridin-3-yl)methyl)-1-((1,2-dimethyl-1H-indol-5-yl)methyl)-1H-pyrazole-4-carboxamide]",0.1
9,"Cc1cc(N)nc(C)c1CNC(=O)c1cnn(Cc2ccc(C(=O)Nc3ccn(C)n3)cc2)c1 [Example 122, N-((6-amino-2,4-dimethylpyridin-3-yl)methyl)-1-(4-(1-methyl-1H-pyrazol-3-ylcarbamoyl)benzyl)-1H-pyrazole-4-carboxamide]",752
10,"Cc1cc(N)nc(C)c1CNC(=O)c1ccn(S(=O)(=O)c2ccc3c(c2)N(C)CCO3)c1 [Example 130, N-((6-amino-2,4-dimethylpyridin-3-yl)methyl)-1-(4-methyl-3,4-dihydro-2H-benzo[b][1,4]oxazin-6-ylsulfonyl)-1H-pyrrole-3-carboxamide]",67
11,"Cc1cc(N)nc(C)c1CNC(=O)c1cnn(Cc2cccc(C(=O)Nc3ccccc3)c2)c1 [Example 117, N-((6-amino-2,4-dimethylpyridin-3-yl)methyl)-1-(3-(phenylcarbamoyl)benzyl)-1H-pyrazole-4-carboxamide]",152
12,"Cc1cc(N)nc(C)c1CNC(=O)c1cc(C)n(S(=O)(=O)c2ccccc2)c1C [Example 72, N-((6-amino-2,4-dimethylpyridin-3-yl)methyl)-2,5-dimethyl-1-(Phenylsulfonyl)-1H-pyrrole-3-carboxamide]",937
13,"Cc1cc(N)nc(C)c1CNC(=O)c1cnn(Cc2cccnc2)c1 [Example 98, N-((6-amino-2,4-dimethylpyridin-3-yl)methyl)-1-(pyridin-3-ylmethyl)-1H-pyrazole-4-carboxamide]",3800
14,"Cc1cc(N)nc(C)c1CNC(=O)c1cnn(Cc2ccc(F)cc2F)c1 [Example 93, N-((6-amino-2,4-dimethylpyridin-3-yl)methyl)-1-(2,4-difluorobenzyl)-1H-pyrazole-4-carboxamide]",674
15,"Cc1nc(N)cc(Cl)c1CNC(=O)c1cnn(Cc2ccccc2)c1 [Example 144, N-((6-amino-4-chloro-2-methylpyridin-3-yl)methyl]-1-benzyl-1H-pyrazole-4-carboxamide]",42400
16,"Cc1cc(N)nc(C)c1CNC(=O)c1cnn(Cc2cc3ccccc3o2)n1 [Example 44, N-((6-amino-2,4-dimethylpyridin-3-yl)methyl)-2-(benzofuran-2-ylmethyl)-2H-1,2,3-triazole-4-carboxamide]",215
17,"Cc1cc(N)nc(C)c1CNC(=O)c1cnn(Cc2cccc(F)c2)c1 [Example 84, N-((6-amino-2,4-dimethylpyridin-3-yl)methyl)-1-(3-fluorobenzyl)-1H-pyrazole-4-carboxamide]",498
18,"Cc1cc(N)nc(C)c1CNC(=O)c1cnn(Cc2cccc(-c3ccccc3)c2)c1 [Example 115, N-((6-amino-2,4-dimethylpyridin-3-yl)methyl)-1-(biphenyl-3-ylmethyl)-1H-pyrazole-4-carboxamide]",3.3
